Data on four compounds can be found in patent publication US8609635B2, “Fused tricyclic silyl compounds and methods of use thereof for the treatment of viral diseases” (priority 2010, dated 2013).

Where two headings read alike, the source gives them in different places.

Assay [1] deals with HCV replicon 1a (L31V) mutant. Kind of assay: Cell-based HCV replicon assay (TaqMan), genotype 1a mutant L31V. Conditions: read-out: HCV replicon EC50 1a (L31V). How it is done: (§1) Measurement of inhibition by compounds of the present invention was performed using the HCV replicon system. Several different replicons encoding different HCV genotypes or mutations were used. In addition, potency measurements were made using different formats of the replicon assay, including different ways of measurements and different plating formats. See Jan M. Vrolijk et al., A replicons-based bioassay for the measurement of interferons in patients with chronic hepatitis C, 110 J. VIROLOGICAL METHODS 201 (2003); Steven S. Carroll et al., Inhibition of Hepatitis C Virus RNA Replication by 2′-Modified Nucleoside Analogs, 278(14) J. BIOLOGICAL […] 11979 (2003). However, the underlying principles are common to all of these determinations, and are outlined below.
(§2) Compounds of the present invention were assayed for cell-based anti-HCV activity using the following protocol. Replicon cells were seeded at 5000 cells/well in 96-well collagen I-coated Nunc plates in the presence of the test compound. Various concentrations of test compound, typically in 10 serial 2-fold dilutions, were added to the assay mixture, with the starting concentration ranging from 250 μM to 1 μM. The final concentration of DMSO was 0.5%, fetal bovine serum was 5%, in the assay media. Cells were harvested on day 3 by the addition of 1× cell lysis buffer (Ambion cat #8721). The replicon RNA level was measured using real time PCR (TaqMan® assay). The amplicon was located in 5B. The PCR primers were: 5B.2F, […] (SEQ. ID NO. 1); 5B.2R, […] (SEQ. ID NO. 2); the probe sequence was FAM-labeled […] (SEQ. ID NO. 3). GAPDH RNA was used as endogenous control and was amplified in the same reaction as NS5B (multiplex PCR) using primers and VIC-labeled probe recommended by the manufacturer (PE Applied Biosystem). The real-time RT-PCR reactions were run on ABI PRISM 7900HT Sequence Detection System using the following program: 48° C. for 30 minutes, 95° C. for 10 minutes, 40 cycles of 95° C. for 15 sec, 60° C. for 1 minute. The ΔCT values (CT5B-CTGAPDH) were plotted against the concentration of test compound and fitted to the sigmoid dose-response model using XLfit4 (MDL). […] Alternatively, to quantitate the absolute amount of replicon RNA, a standard curve was established by including serially diluted T7 transcripts of replicon RNA in the Taqman assay. All TaqMan® reagents were from PE Applied Biosystems. Such an assay procedure was described in detail in e.g. Malcolm et al., Antimicrobial Agents and Chemotherapy 50: 1013-1020 (2006).
(§3) Wherein gt1a_H77 was prepared as described in Yi et al., J Virol. 2004, 78(15):7904-15; gt1b_con1 was prepared as described in Lohmann et al., Science 1999, 285(5424):110-3; and gt2a_JFH was prepared as described in Kato et al., Gastroenterology. 2003, 125(6):1808-17. Chimeric replicons contain NS5A from patient isolates of genotypes 1a, 1b, 2b, 3a and 4a as indicated.

Assay [2] has as its system HCV replicon 1a (Y93H) mutant. Nature of the assay: Cell-based HCV replicon assay (TaqMan), genotype 1a mutant Y93H. The settings on record: read-out: HCV replicon EC50 1a (Y93H). An outline of the steps:
(§4)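 Replicon cells seeded at 5000 cells/well with compound (10 serial 2-fold dilutions from 250 μM to 1 μM top dose; 0.5% DMSO, 5% FBS) and lysed on day 3. Replicon RNA quantified by multiplex TaqMan RT-PCR (NS5B amplicon, GAPDH control); ΔCT versus concentration fitted to sigmoid dose-response. Chimeras carry patient-isolate NS5A.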
A general note: Replicon systems follow genome replication, usually without infectious particles.

The subject of assay [3] is HCV chimeric replicon with NS5A of genotype 4a (DQ41878). Nature of the assay: Cell-based HCV replicon assay (TaqMan), chimeric replicon genotype 4a (DQ41878). Conditions: read-out: HCV replicon EC50 4a (DQ41878). An outline of the steps: as §4
Another assay relates to HCV replicon gt2a_JFH. Kind of assay: Cell-based HCV replicon assay (TaqMan), genotype 2a (JFH). The settings on record: replicon 2a (JFH), replicon RNA by TaqMan, day 3. An outline of the steps:
as §4

Assay [4] concerns HCV chimeric replicon with NS5A of genotype 2b (AB03090). Nature of the assay: Cell-based HCV replicon assay (TaqMan), chimeric replicon genotype 2b (AB03090). Conditions: replicon RNA by TaqMan, day 3. How it is done: as §1, §2, §3
The test system of assay [5] is HCV chimeric replicon with NS5A of genotype 3a (NC00982). Nature of the assay: Cell-based HCV replicon assay (TaqMan), chimeric replicon genotype 3a (NC00982). Conditions: replicon RNA by TaqMan, day 3. An outline of the steps:
as §4

The next assay concerns HCV replicon gt1a_H77. Kind of assay: Cell-based HCV replicon assay (TaqMan), genotype 1a (H77). The settings on record: replicon 1a (H77), replicon RNA by TaqMan, day 3. An outline of the steps:
as §4

The next assay concerns HCV replicon gt1b_con1. Kind of assay: Cell-based HCV replicon assay (TaqMan), genotype 1b (Con1). The settings on record: replicon 1b (Con1), replicon RNA by TaqMan, day 3. The method, boiled down: as §4
[6] abbreviates: Hepatitis C virus, 72 h, read-out: HCV replicon EC50 2b (AB03090), chimeric replicon 2b (AB03090).
The mark [7] stands for this setting: Hepatitis C virus, 72 h, read-out: HCV replicon EC50 3a (NC00982), chimeric replicon 3a (NC00982).

For the compound `COC(=O)N[C@H](C(=O)N1CC[C@H](C)[C@H]1c1ncc(-c2ccc(-c3ccc4c(ccc5nc([C@@H]6C[Si](C)(C)CN6C(=O)[C@@H](NC(=O)OC)C(C)C)[nH]c54)c3)cc2)[nH]1)C(C)C` [Compound 96], the EC50 in assay [1] (Hepatitis C virus, 72 h) stood at 1 nM; in assay [2] (Hepatitis C virus, 72 h), 51 nM; in assay [3] (Hepatitis C virus, 72 h), 0.936 nM; in the assay with HCV replicon gt2a_JFH (Hepatitis C virus, 72 h), 0.013 nM; in assay [4] (setting [6]), 49.3 nM; in assay [5] (setting [7]), 0.099 nM. Moreover, the EC50 in the assay with HCV replicon gt1a_H77 (Hepatitis C virus, 72 h) is 0.04 nM; with HCV replicon gt1b_con1 (Hepatitis C virus, 72 h), 0.004 nM.

For `COC(=O)N[C@H](C(=O)N1C[Si](C)(C)C[C@H]1c1nc2ccc3cc(-c4ccc(-c5cnc([C@@H]6C[C@H]7C[C@H]7N6C(=O)[C@@H](NC(=O)OC)C(C)C)[nH]5)cc4)ccc3c2[nH]1)C(C)C` [Compound 97], the EC50 in assay [1] (Hepatitis C virus, 72 h) amounted to 15 nM; in assay [2] (Hepatitis C virus, 72 h), 30 nM; in assay [3] (Hepatitis C virus, 72 h), 0.029 nM; in the assay with HCV replicon gt2a_JFH (Hepatitis C virus, 72 h), 0.005 nM; in assay [4] (setting [6]), 17.1 nM; in assay [5] (setting [7]) it was 0.09 nM. Further, the EC50 in the assay on HCV replicon gt1a_H77 (Hepatitis C virus, 72 h) was 0.005 nM; with HCV replicon gt1b_con1 (Hepatitis C virus, 72 h) it was 0.002 nM.

Take `COC(=O)N[C@H](C(=O)N1C[Si](C)(C)C[C@H]1c1ncc(-c2ccc(-c3ccc4c(ccc5nc([C@@H]6CC(F)(F)CN6C(=O)[C@@H](NC(=O)OC)C(C)C)[nH]c54)c3)cc2)[nH]1)C(C)C` [Compound 54]: the EC50 in assay [1] (Hepatitis C virus, 72 h) is 10 nM; in assay [2] (Hepatitis C virus, 72 h), 65 nM; in assay [3] (Hepatitis C virus, 72 h), 0.02 nM; in the assay on HCV replicon gt2a_JFH (Hepatitis C virus, 72 h) it was 0.03 nM; in assay [4] (setting [6]) it was 128 nM; in assay [5] (setting [7]), 0.18 nM. The EC50 in the assay with HCV replicon gt1a_H77 (Hepatitis C virus, 72 h) amounted to 0.009 nM; in the assay with HCV replicon gt1b_con1 (Hepatitis C virus, 72 h) it was 0.002 nM.

As to `COC(=O)N[C@H](C(=O)N1C[Si](C)(C)C[C@H]1c1ncc(-c2ccc(-c3ccc4c(ccc5nc([C@@H]6CC(F)(F)CN6C(=O)[C@@H](NC(=O)OC)C(C)C)[nH]c54)c3)cc2)[nH]1)C(C)C` [Compound 94], the EC50 came to 10 nM in assay [1] (replicon 1a mutant L31V, replicon RNA by TaqMan, day 3); 65 nM in assay [2] (replicon 1a mutant Y93H, replicon RNA by TaqMan, day 3); 0.02 nM in assay [3] (chimeric replicon 4a (DQ41878), replicon RNA by TaqMan, day 3); 0.03 nM in the assay with HCV replicon gt2a_JFH; 129 nM in assay [4] (read-out: HCV replicon EC50 2b (AB03090), chimeric replicon 2b (AB03090)); 0.2 nM in assay [5] (read-out: HCV replicon EC50 3a (NC00982), chimeric replicon 3a (NC00982)). For the same compound, the EC50 came to 0.008 nM in the assay with HCV replicon gt1a_H77 and 0.002 nM in the assay on HCV replicon gt1b_con1.

What is called EC50 is the concentration that produces a half-maximal response.
